Data from PubChem BioAssay AID1918934 (Molecular Pharmacology Branch, DTP, NCI, 2023).

System: 292921-168-R-J2-PDC complex spheroid viability
Assay: Anticancer human tumor 292921-168-R-J2-PDC patient-derived pancreatic carcinoma cell line growth inhibition
Conditions: for IC50: curve of first compound; for viability, T/C: stronger effect = lower value
Outline: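 Multicellular complex spheroids of tumor cells with human endothelial cells (HUVEC) and mesenchymal stem cells; the LSD1 inhibitor iadademstat was combined with standard-of-care or investigational agents. Top concentration at or near clinical Cmax, half-log dilutions; final DMSO ≤0.25%.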

[1] = second compound 0.1 µM, first compound 0.00949 µM
[2] = second compound 0.1 µM, first compound 0.03 µM
[3] = second compound 0.1 µM, first compound 0.0949 µM
[4] = second compound 0.1 µM, first compound 0.3 µM
[5] = second compound 0.316 µM, first compound 0.00949 µM
[6] = second compound 0.316 µM, first compound 0.03 µM
[7] = second compound 0.316 µM, first compound 0.0949 µM
[8] = second compound 0.316 µM, first compound 0.3 µM
[9] = second compound 1 µM, first compound 0.00949 µM
[10] = second compound 1 µM, first compound 0.03 µM
[11] = second compound 1 µM, first compound 0.0949 µM
[12] = second compound 1 µM, first compound 0.3 µM
[13] = second compound 3.16 µM, first compound 0.00949 µM
[14] = second compound 3.16 µM, first compound 0.03 µM
[15] = second compound 3.16 µM, first compound 0.0949 µM
[16] = second compound 3.16 µM, first compound 0.3 µM
[17] = second compound 10 µM, first compound 0.00949 µM
[18] = second compound 10 µM, first compound 0.03 µM
[19] = second compound 10 µM, first compound 0.0949 µM
[20] = second compound 10 µM, first compound 0.3 µM
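Also: seven day compound exposure before luminescent viability read.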
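For viability, T/C in this document: 100% = DMSO vehicle control wells.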

In the case of CCN(c1cc(-c2ccc(CN3CCOCC3)cc2)cc(C(=O)NCc2c(C)cc(C)[nH]c2=O)c1C)C1CCOCC1 + NC1CC1c1ccc(-c2cccc(O)c2)cc1, the IC50 (second compound 0.1 µM) is reported as 1080 nM, the IC50 (second compound 0.316 µM) is reported as 1020 nM and the IC50 (second compound 1 µM) is reported as 1100 nM. It also gave an IC50 (second compound 3.16 µM) of 1070 nM, an IC50 (second compound 10 µM) of 763 nM and a viability, T/C [1] of 77.2%. For the same compound, the viability, T/C [2] was 79.2%, the viability, T/C [3] was 81.9% and the viability, T/C [4] was 77.1%. For the same compound, the viability, T/C (second compound 0.1 µM, first compound 0.949 µM) was 53.5%, the viability, T/C (second compound 0.1 µM, first compound 3 µM) was 22.1% and the viability, T/C [5] was 69.5%. It also gave a viability, T/C [6] of 82.7%, a viability, T/C [7] of 77.5% and a viability, T/C [8] of 71.7%. For the same compound, the viability, T/C (second compound 0.316 µM, first compound 0.949 µM) was 51.9%, the viability, T/C (second compound 0.316 µM, first compound 3 µM) was 21.7% and the viability, T/C [9] was 68.6%. For the same compound, the viability, T/C [10] was 72%, the viability, T/C [11] was 68.8% and the viability, T/C [12] was 68.4%. The viability, T/C (second compound 1 µM, first compound 0.949 µM) was 54.5%, the viability, T/C (second compound 1 µM, first compound 3 µM) was 19.4% and the viability, T/C [13] was 70.7%. It also gave a viability, T/C [14] of 75.3%, a viability, T/C [15] of 70.2% and a viability, T/C [16] of 64.5%. It also gave a viability, T/C (second compound 3.16 µM, first compound 0.949 µM) of 54.1%, a viability, T/C (second compound 3.16 µM, first compound 3 µM) of 22.3% and a viability, T/C [17] of 62.7%. For the same compound, the viability, T/C [18] was 62.5%, the viability, T/C [19] was 62.5% and the viability, T/C [20] was 60.2%. For the same compound, the viability, T/C (second compound 10 µM, first compound 0.949 µM) was 47.6% and the viability, T/C (second compound 10 µM, first compound 3 µM) was 21.8%.

In the case of Cn1ncnc1C1c2n[nH]c(=O)c3cc(F)cc(c23)NC1c1ccc(F)cc1 (stereo not given) + NC1CC1c1ccc(-c2cccc(O)c2)cc1, the IC50 (second compound 0.1 µM) is reported as over 100 nM, the IC50 (second compound 0.316 µM) is reported as over 100 nM and the IC50 (second compound 1 µM) is reported as over 100 nM. The IC50 (second compound 3.16 µM) was over 100 nM, the IC50 (second compound 10 µM) was 6.46 nM and the viability, T/C (second compound 0.1 µM, first compound 0.000316 µM) was 87.2%. For the same compound, the viability, T/C (second compound 0.1 µM, first compound 0.001 µM) was 83.4%, the viability, T/C (second compound 0.1 µM, first compound 0.00316 µM) was 76.7% and the viability, T/C (second compound 0.1 µM, first compound 0.01 µM) was 71.2%. It also gave a viability, T/C (second compound 0.1 µM, first compound 0.0316 µM) of 67.3%, a viability, T/C (second compound 0.1 µM, first compound 0.1 µM) of 65.5% and a viability, T/C (second compound 0.316 µM, first compound 0.000316 µM) of 71%. For the same compound, the viability, T/C (second compound 0.316 µM, first compound 0.001 µM) was 75%, the viability, T/C (second compound 0.316 µM, first compound 0.00316 µM) was 67% and the viability, T/C (second compound 0.316 µM, first compound 0.01 µM) was 63.4%. It also gave a viability, T/C (second compound 0.316 µM, first compound 0.0316 µM) of 57.8%, a viability, T/C (second compound 0.316 µM, first compound 0.1 µM) of 62.2% and a viability, T/C (second compound 1 µM, first compound 0.000316 µM) of 72.2%. It also gave a viability, T/C (second compound 1 µM, first compound 0.001 µM) of 62.8%, a viability, T/C (second compound 1 µM, first compound 0.00316 µM) of 67.3% and a viability, T/C (second compound 1 µM, first compound 0.01 µM) of 58.1%. The viability, T/C (second compound 1 µM, first compound 0.0316 µM) was 64%, the viability, T/C (second compound 1 µM, first compound 0.1 µM) was 60.3% and the viability, T/C (second compound 3.16 µM, first compound 0.000316 µM) was 69.2%. The viability, T/C (second compound 3.16 µM, first compound 0.001 µM) was 64.2%, the viability, T/C (second compound 3.16 µM, first compound 0.00316 µM) was 59.7% and the viability, T/C (second compound 3.16 µM, first compound 0.01 µM) was 54.5%. The viability, T/C (second compound 3.16 µM, first compound 0.0316 µM) was 50.5%, the viability, T/C (second compound 3.16 µM, first compound 0.1 µM) was 52.5% and the viability, T/C (second compound 10 µM, first compound 0.000316 µM) was 51.9%. The viability, T/C (second compound 10 µM, first compound 0.001 µM) was 58%, the viability, T/C (second compound 10 µM, first compound 0.00316 µM) was 51.9% and the viability, T/C (second compound 10 µM, first compound 0.01 µM) was 48.3%. For the same compound, the viability, T/C (second compound 10 µM, first compound 0.0316 µM) was 43.6% and the viability, T/C (second compound 10 µM, first compound 0.1 µM) was 43.6%.

In the case of Nc1ncn(C2CC(O)C(CO)S2)c(=O)n1 (stereo not given) + NC1CC1c1ccc(-c2cccc(O)c2)cc1, the IC50 (second compound 0.1 µM) is reported as 61.3 nM, the IC50 (second compound 0.316 µM) is reported as 53.1 nM and the IC50 (second compound 1 µM) is reported as 50.3 nM. It also gave an IC50 (second compound 3.16 µM) of 40 nM, an IC50 (second compound 10 µM) of 36.5 nM and a viability, T/C (second compound 0.1 µM, first compound 0.000949 µM) of 83%. For the same compound, the viability, T/C (second compound 0.1 µM, first compound 0.003 µM) was 80.8%, the viability, T/C [1] was 73.2% and the viability, T/C [2] was 62.2%. The viability, T/C [3] was 42.7%, the viability, T/C [4] was 11.5% and the viability, T/C (second compound 0.316 µM, first compound 0.000949 µM) was 66.8%. For the same compound, the viability, T/C (second compound 0.316 µM, first compound 0.003 µM) was 73.2%, the viability, T/C [5] was 63.9% and the viability, T/C [6] was 63.1%. It also gave a viability, T/C [7] of 37.3%, a viability, T/C [8] of 13.3% and a viability, T/C (second compound 1 µM, first compound 0.000949 µM) of 63.9%. It also gave a viability, T/C (second compound 1 µM, first compound 0.003 µM) of 67%, a viability, T/C [9] of 74.4% and a viability, T/C [10] of 56.9%. The viability, T/C [11] was 38.5%, the viability, T/C [12] was 12.8% and the viability, T/C (second compound 3.16 µM, first compound 0.000949 µM) was 67.5%. It also gave a viability, T/C (second compound 3.16 µM, first compound 0.003 µM) of 66.8%, a viability, T/C [13] of 62.6% and a viability, T/C [14] of 55.1%. For the same compound, the viability, T/C [15] was 36%, the viability, T/C [16] was 12.8% and the viability, T/C (second compound 10 µM, first compound 0.000949 µM) was 55.2%. It also gave a viability, T/C (second compound 10 µM, first compound 0.003 µM) of 62%, a viability, T/C [17] of 59.9% and a viability, T/C [18] of 52.8%. For the same compound, the viability, T/C [19] was 33.6% and the viability, T/C [20] was 15.5%.
